Measured values: publication PMC4917657, “SP6616 as a new Kv2.1 channel inhibitor efficiently promotes β-cell survival involving both PKC/Erk1/2 and CaM/PI3K/Akt signaling pathways” (Cell Death & Disease, 2016)

System: T1, Kv2.2
T1 construct: gene KCNB2
Test: channel inhibition in CHO cells transfected with pcDNA3.1a-Kv2.[…] (Supplementary Figure […])
Format: cell-based

Question: How did the IC50 turn out when CCOC(=O)C1=C(C)N=c2sc(=Cc3ccc(O)c(OC)c3)c(=O)n2C1c1ccc(OC)c(OCC)c1 (stereo not shown) [SP6616, ethyl 5-(3-ethoxy-4-methoxyphenyl)-2-(4-hydroxy-3-methoxybenzylidene)-7-methyl-3-oxo-2,3-dihydro-5H-[1,3]thiazolo[3,2–a]pyrimidine-6-carboxylate] was run?
Answer: 13.5 µM
